In patent US10479795B2 (Incyte Corporation, priority 2016, dated 2019):
pIC50: −log10 of the molar value. Where a name gives a salt, the structure may show the parent alone. Read-outs that look alike come from different tables or passages of the source.

Experiments:
[1] = molecular target: PI3Kδ (p110δ/p85α) Recombinant Human Protein (Homo sapiens (Human), UniProt O00329); experiment: PI3Kδ Scintillation Proximity Assay; type: biochemical
In short: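 Radiometric read-out: 33P-labelled PIP3 product captured on WGA SPA beads and counted, with IC50 fitted from percent activity relative to DMSO control. Enzyme (3.4 nM) was incubated 120 min at room temperature with 20 μM PIP2 and 2 μM ATP at pH 6.7, 2% DMSO.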

[2] = system: Phosphorylated Ribosomal Protein S6 (RPS6); experiment: THP-1 RPS6 ELISA Assay; type: cell-based, Human; conditions: THP-1 cells, read-out: PI3Kγ_THP1_RPS6_ELISA IC50
Procedure: To measure the Phosphorylated Ribosomal Protein S6 (RPS6) in cell lysates, THP-1 cells (Human Acute Monocytic Leukemia) are purchased from ATCC (Manassas, Va.) and maintained in RPMI with 10% FBS (Gibco/Life Technologies, Carlsbad, Calif.). For the assay, THP-1 cells are serum starved overnight in RPMI, then plated in RPMI (2×10^5 cells/well in 90 μL) into 96-well flat-bottom tissue culture treated plates (Corning, Corning, N.Y.), in the presence or absence of a concentration range of test compounds. Covered plates are incubated for 2 hours at 37° C., 5% CO2 then treated with or without 10 nM MCP-1 (MYBioSource, San Diego, Calif.) for 15 minutes at 37° C., 5% CO2. Plates are centrifuged at 1600 RPM and supernatants are removed. Cells are lysed in Lysis Buffer (Cell Signaling, Danvers, Mass.) with Protease Inhibitor (Calbiochem/EMD, Germany), PMSF (Sigma, St Louis Mo.), HALTS (Thermo Fisher, Rockford, Ill.) for 30 min on wet ice. Cell lysates are frozen at −80° C. before testing. The lysates are tested in the Human/Mouse/Rat Phospho-RPS6 ELISA (R&D Systems, Inc. Minn, Minn.). The plate is measured using a microplate reader (SpectraMax M5 —Molecular Devices, LLC Sunnyvale, Calif.) set to 450 nm with a wavelength correction of 540. IC50 determination is performed by fitting the curve of inhibitor percent inhibition versus the log of the inhibitor concentration using the GraphPad Prism 5.0 software.

[3] = molecular target: PI3Kγ (p110γ) Recombinant Human Protein (Homo sapiens (Human), UniProt P48736); experiment: PI3K-γ Scintillation Proximity Assay; type: biochemical; conditions: read-out: PI3Kγ IC50
PI3Kγ (p110γ) Recombinant Human Protein, sequence (P48736 whole entry): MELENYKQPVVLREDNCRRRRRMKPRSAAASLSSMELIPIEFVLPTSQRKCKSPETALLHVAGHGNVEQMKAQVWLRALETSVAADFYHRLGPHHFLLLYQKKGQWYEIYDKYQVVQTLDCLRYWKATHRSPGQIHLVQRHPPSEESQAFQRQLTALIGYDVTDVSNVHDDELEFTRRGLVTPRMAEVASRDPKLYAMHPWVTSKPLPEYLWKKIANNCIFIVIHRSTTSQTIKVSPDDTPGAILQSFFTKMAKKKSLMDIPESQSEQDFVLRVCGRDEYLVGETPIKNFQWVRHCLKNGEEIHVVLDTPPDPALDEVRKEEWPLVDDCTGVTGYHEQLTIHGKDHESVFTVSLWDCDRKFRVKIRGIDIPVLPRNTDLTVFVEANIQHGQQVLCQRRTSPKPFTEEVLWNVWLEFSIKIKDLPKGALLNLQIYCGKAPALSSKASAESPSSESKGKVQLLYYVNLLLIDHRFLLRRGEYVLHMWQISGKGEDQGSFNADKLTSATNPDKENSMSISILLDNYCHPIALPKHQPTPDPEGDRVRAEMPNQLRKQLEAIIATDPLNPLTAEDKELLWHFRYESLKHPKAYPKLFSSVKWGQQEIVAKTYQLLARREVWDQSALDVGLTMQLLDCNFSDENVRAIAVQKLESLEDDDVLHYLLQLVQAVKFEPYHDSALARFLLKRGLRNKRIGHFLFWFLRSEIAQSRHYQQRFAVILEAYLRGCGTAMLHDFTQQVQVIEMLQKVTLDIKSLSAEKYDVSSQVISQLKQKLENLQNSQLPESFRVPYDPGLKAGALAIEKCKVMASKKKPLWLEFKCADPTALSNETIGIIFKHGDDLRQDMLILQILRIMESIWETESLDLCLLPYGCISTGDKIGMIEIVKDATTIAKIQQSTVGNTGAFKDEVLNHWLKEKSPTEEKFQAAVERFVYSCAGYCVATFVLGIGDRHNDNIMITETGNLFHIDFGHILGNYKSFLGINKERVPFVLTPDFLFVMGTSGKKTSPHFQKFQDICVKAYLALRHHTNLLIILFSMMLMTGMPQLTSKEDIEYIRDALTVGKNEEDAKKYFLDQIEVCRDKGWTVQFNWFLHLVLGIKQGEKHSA
In short: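 Radiometric SPA readout: […] bound to WGA beads after overnight shaking, IC50 derived from % activity of DMSO control. Reaction used human p110γ, 2 μM ATP, 20 μM PIP2, pH 6.7 MOPS buffer with MgCl2, DTT, CHAPS, 2% DMSO, room temperature.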

PI3Kδ (p110δ/p85α) Recombinant Human Protein, sequence (O00329 whole entry): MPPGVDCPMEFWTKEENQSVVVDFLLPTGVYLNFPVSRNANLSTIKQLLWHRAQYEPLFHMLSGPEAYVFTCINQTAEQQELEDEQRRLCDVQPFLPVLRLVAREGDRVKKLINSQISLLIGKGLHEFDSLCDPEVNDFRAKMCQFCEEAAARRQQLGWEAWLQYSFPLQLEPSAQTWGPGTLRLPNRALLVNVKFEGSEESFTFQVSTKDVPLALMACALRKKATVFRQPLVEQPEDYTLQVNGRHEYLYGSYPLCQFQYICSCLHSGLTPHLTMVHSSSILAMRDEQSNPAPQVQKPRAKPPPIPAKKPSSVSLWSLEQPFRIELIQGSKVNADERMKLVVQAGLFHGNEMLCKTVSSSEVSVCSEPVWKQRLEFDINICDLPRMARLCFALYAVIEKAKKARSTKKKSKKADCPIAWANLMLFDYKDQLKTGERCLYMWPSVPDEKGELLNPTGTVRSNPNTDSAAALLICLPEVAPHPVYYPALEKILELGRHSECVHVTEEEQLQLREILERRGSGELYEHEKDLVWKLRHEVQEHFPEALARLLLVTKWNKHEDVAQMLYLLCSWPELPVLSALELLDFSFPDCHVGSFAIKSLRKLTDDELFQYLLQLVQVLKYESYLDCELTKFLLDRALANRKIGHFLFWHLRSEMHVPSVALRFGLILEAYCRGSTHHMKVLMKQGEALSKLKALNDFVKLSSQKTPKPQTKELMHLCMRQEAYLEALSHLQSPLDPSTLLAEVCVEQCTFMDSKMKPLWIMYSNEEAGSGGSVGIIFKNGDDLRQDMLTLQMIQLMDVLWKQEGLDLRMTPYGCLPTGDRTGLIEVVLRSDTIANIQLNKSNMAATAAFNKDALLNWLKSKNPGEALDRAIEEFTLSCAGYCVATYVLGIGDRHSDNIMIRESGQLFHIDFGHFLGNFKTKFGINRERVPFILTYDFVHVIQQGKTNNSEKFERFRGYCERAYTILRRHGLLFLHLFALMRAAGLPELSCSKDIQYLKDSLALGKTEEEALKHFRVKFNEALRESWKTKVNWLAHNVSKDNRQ
PI3Kδ (p110δ/p85α) Recombinant Human Protein, sequence (P27986 whole entry partner): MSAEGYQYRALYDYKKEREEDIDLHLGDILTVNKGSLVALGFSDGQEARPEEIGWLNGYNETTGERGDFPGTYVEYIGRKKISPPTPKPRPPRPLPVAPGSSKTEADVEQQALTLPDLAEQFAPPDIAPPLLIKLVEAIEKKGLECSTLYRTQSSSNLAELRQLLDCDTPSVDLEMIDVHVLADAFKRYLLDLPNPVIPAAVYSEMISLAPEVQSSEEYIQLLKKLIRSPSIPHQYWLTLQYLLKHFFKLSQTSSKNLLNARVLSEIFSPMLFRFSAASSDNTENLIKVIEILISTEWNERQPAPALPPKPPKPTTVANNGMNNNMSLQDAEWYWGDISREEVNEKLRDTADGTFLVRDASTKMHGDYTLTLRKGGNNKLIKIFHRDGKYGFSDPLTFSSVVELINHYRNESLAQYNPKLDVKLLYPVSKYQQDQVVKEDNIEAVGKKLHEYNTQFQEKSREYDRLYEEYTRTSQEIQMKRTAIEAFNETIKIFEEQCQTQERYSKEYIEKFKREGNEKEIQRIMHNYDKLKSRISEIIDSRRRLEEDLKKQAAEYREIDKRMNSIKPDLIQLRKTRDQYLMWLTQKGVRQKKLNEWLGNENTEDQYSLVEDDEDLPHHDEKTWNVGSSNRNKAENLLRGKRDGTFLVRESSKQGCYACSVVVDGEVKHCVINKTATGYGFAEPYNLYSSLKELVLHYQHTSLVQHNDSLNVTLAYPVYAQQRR

| SMILES | pIC50 [1] | pIC50 ([2]; Homo sapiens) | pIC50 [3] | pIC50 [2] |
| --- | --- | --- | --- | --- |
| Cc1ccc(S(=O)(=O)N[C@H]2CC[C@H](O)CC2)cc1-c1cnc2c(N)nc(-c3ccc(CO)cc3F)cn12 [Example 32, 3-{8-Amino-6-[2-fluoro-4-(hydroxymethyl)phenyl]imidazo[1,2-a]pyrazin-3-yl}-N-(trans-4-hydroxycyclohexyl)-4-methylbenzenesulfonamide] | > 7.00 | > 7.00 | > 7.00 |  |
| Cc1ncc(-c2cn3c(-c4cc(S(=O)(=O)N[C@H]5CC[C@H](O)CC5)ccc4C)cnc3c(N)n2)s1 [Example 35, 3-[8-Amino-6-(2-methylthiazol-5-yl)imidazo[1,2-a]pyrazin-3-yl]-N-(trans-4-hydroxycyclohexyl)-4-methylbenzenesulfonamide] | 6.30 to 7.00 | > 7.00 | > 7.00 |  |
| CNc1nc(-c2ccccc2F)cn2c(-c3cc(S(=O)(=O)N[C@H]4CC[C@H](O)CC4)ccc3C)cnc12 [Example 36, 3-[6-(2-Fluorophenyl)-8-(methylamino)imidazo[1,2-a]pyrazin-3-yl]-N-(trans-4-hydroxycyclohexyl)-4-methylbenzenesulfonamide trifluoroacetate] | > 7.00 | > 7.00 | > 7.00 |  |
| Cc1cn2c(-c3cc(S(=O)(=O)N[C@H]4CC[C@H](O)CC4)ccc3C)cnc2c(N)n1 [Example 37, 3-(8-Amino-6-methylimidazo[1,2-a]pyrazin-3-yl)-N-(trans-4-hydroxycyclohexyl)-4-methylbenzenesulfonamide] | > 7.00 | 6.30 to 7.00 | > 7.00 |  |
| CCc1cn2c(-c3cc(S(=O)(=O)N[C@H]4CC[C@H](O)CC4)ccc3C)cnc2c(N)n1 [Example 38, 3-(8-Amino-6-ethylimidazo[1,2-a]pyrazin-3-yl)-N-(trans-4-hydroxycyclohexyl)-4-methylbenzenesulfonamide] | > 7.00 | > 7.00 | > 7.00 |  |
| Cc1ccc(S(=O)(=O)N[C@H]2CC[C@H](O)CC2)cc1-c1cnc2c(N)ncnn12 [Example 39, 3-(4-Aminoimidazo[2,1-f][1,2,4]triazin-7-yl)-N-(trans-4-hydroxycyclohexyl)-4-methylbenzenesulfonamide] | 6.30 to 7.00 | 6.30 to 7.00 | > 7.00 |  |
| Cc1ccc(-c2cnc3c(N)nccn23)cc1S(=O)(=O)N[C@H]1CC[C@H](O)CC1 [Example 41, 5-(8-Aminoimidazo[1,2-a]pyrazin-3-yl)-N-(trans-4-hydroxycyclohexyl)-2-methylbenzenesulfonamide] | 6.30 to 7.00 | < 6.00 | > 7.00 |  |
| Nc1nccn2c(-c3cc(S(=O)(=O)N[C@H]4CC[C@H](O)CC4)ccc3F)cnc12 [Example 42, 3-(8-Aminoimidazo[1,2-a]pyrazin-3-yl)-4-fluoro-N-(trans-4-hydroxycyclohexyl)benzenesulfonamide] | 5.70 to 6.30 | 6.00 to 6.30 | > 7.00 |  |
| Cc1ccc(S(=O)(=O)NC2CC2)cc1-c1cnc2c(N)nccn12 [Example 47, 3-(8-Aminoimidazo[1,2-a]pyrazin-3-yl)-N-cyclopropyl-4-methylbenzenesulfoanmide] | 5.70 to 6.30 |  | > 7.00 | < 6.00 |
| Cc1ccc(S(=O)(=O)NCC2CCOC2)cc1-c1cnc2c(N)nccn12 (stereo not drawn) [Example 48, 3-(8-Aminoimidazo[1,2-a]pyrazin-3-yl)-4-methyl-N-(tetrahydrofuran-3-ylmethyl)benzenesulfonamide] | 5.70 to 6.30 | < 6.00 | > 7.00 |  |
| Cc1ccc(S(=O)(=O)NC2CCOCC2)cc1-c1cnc2c(N)nccn12 [Example 49, 3-(8-Aminoimidazo[1,2-a]pyrazin-3-yl)-4-methyl-N-(tetrahydro-2H-pyran-4-yl)benzenesulfonamide] | 5.70 to 6.30 | < 6.00 | > 7.00 |  |
| Cc1ccc(S(=O)(=O)NCCCO)cc1-c1cnc2c(N)nccn12 [Example 50, 3-(8-Aminoimidazo[1,2-a]pyrazin-3-yl)-N-(3-hydroxypropyl)-4-methylbenzenesulfonamide] | 5.70 to 6.30 | < 6.00 | > 7.00 |  |
| Cc1ccc(S(=O)(=O)N2CCC(O)CC2)cc1-c1cnc2c(N)nccn12 [Example 51, 1-{[3-(8-Aminoimidazo[1,2-a]pyrazin-3-yl)-4-methylphenyl]sulfonyl}piperidin-4-ol] | 5.70 to 6.30 | < 6.00 | > 7.00 |  |
| Cc1ccc(S(=O)(=O)N(C)[C@H]2CC[C@H](O)CC2)cc1-c1cnc2c(N)nccn12 [Example 52, 3-(8-Aminoimidazo[1,2-a]pyrazin-3-yl)-N-(trans-4-hydroxycyclohexyl)-N,4-dimethylbenzenesulfonamide] | 6.30 to 7.00 | 6.00 to 6.30 | > 7.00 |  |

Continued, in another order:

| pIC50 [1] | pIC50 ([2]; Homo sapiens) | pIC50 [3] | SMILES | pIC50 [2] |
| --- | --- | --- | --- | --- |
| 5.70 to 6.30 | < 6.00 | > 7.00 | CO[C@H]1CC[C@H](NS(=O)(=O)c2ccc(C)c(-c3cnc4c(N)nccn34)c2)CC1 [Example 53, 3-(8-Aminoimidazo[1,2-a]pyrazin-3-yl)-N-(trans-4-methoxycyclohexyl)-4-methylbenzenesulfonamide] |  |
| 6.30 to 7.00 | < 6.00 | > 7.00 | Cc1ccc(S(=O)(=O)N[C@H]2C[C@H](O)C2)cc1-c1cnc2c(N)nccn12 [Example 54, 3-(8-Aminoimidazo[1,2-a]pyrazin-3-yl)-N-(trans-3-hydroxycyclobutyl)-4-methylbenzenesulfonamide] |  |
| < 5.70 | < 6.00 | > 7.00 | Cc1ccc(S(=O)(=O)N[C@H]2CC[C@H](NC(=O)OC(C)(C)C)CC2)cc1-c1cnc2c(N)nccn12 [Example 55, tert-Butyl [trans-4-({[3-(8-aminoimidazo[1,2-a]pyrazin-3-yl)-4-methylphenyl]sulfonyl}amino)cyclohexyl]carbamate] |  |
| 5.70 to 6.30 | < 6.00 | > 7.00 | Cc1ccc(S(=O)(=O)N[C@H]2C[C@H](CO)C2)cc1-c1cnc2c(N)nccn12 [Example 56, 3-(8-Aminoimidazo[1,2-a]pyrazin-3-yl)-N-[trans-3-(hydroxymethyl)cyclobutyl]-4-methylbenzenesulfonamide] |  |
| 5.70 to 6.30 | < 6.00 | > 7.00 | Cc1ccc(S(=O)(=O)N[C@H]2CC[C@H](CO)OC2)cc1-c1cnc2c(N)nccn12 [Example 57, 3-(8-Aminoimidazo[1,2-a]pyrazin-3-yl)-N-[(3S,6R)-6-(hydroxymethyl)tetrahydro-2H-pyran-3-yl]-4-methylbenzenesulfonamide] |  |
| 5.70 to 6.30 | < 6.00 | 6.30 to 7.00 | Cc1ccc(S(=O)(=O)N[C@H]2CC[C@H](N)CC2)cc1-c1cnc2c(N)nccn12 [Example 58, N-(trans-4-Aminocyclohexyl)-3-(8-aminoimidazo[1,2-a]pyrazin-3-yl)-4-methylbenzenesulfonamide] |  |
| 5.70 to 6.30 | < 6.00 | > 7.00 | CC(=O)N[C@H]1CC[C@H](NS(=O)(=O)c2ccc(C)c(-c3cnc4c(N)nccn34)c2)CC1 [Example 59, N-[trans-4-({[3-(8-Aminoimidazo[1,2-a]pyrazin-3-yl)-4-methylphenyl]sulfonyl}amino)cyclohexyl]acetamide] |  |
| 6.30 to 7.00 |  | > 7.00 | Cc1ccc(S(=O)(=O)N[C@H]2C[C@H](CO)C2)cc1-c1cnc2c(N)ncnn12 [Example 60, 3-(4-Aminoimidazo[1,2-f][1,2,4]triazin-7-yl)-N-[trans-3-(hydroxymethyl)cyclobutyl]-4-methylbenzenesulfonamide] | 6.30 to 7.00 |
